Data published in patent publication EP4660185A1, “NAV1.7- AND/OR NAV1.8-INHIBITING AMIDES, PROCESSES FOR THE PREPARATION THEREOF, COMPOSITIONS, USES, METHODS FOR TREATMENT USING SAME, AND KITS” (Eurofarma Laboratórios S.A., priority 2023, dated 2024).

Key:
[1] = biological target: T1, human sodium channels Nav 1.8 (Homo sapiens, UniProt Q9Y5Y9); test: Automated whole-cell voltage-clamp (ScreenPatch 384P) sodium current block, Nav 1.8; assay type: cell-based; conditions: CHO cells stably expressing human Nav 1.8; holding -100 mV, inactivation step -40 mV for 8 seconds, test step 10 mV (TP1A); exposure at least five minutes, room temperature; mean where tested in two or more assays; read-out: Nav1.8 IC50
T1 construct: expressed in transfected cells
Description: (§1) Biological assays were performed on Chinese hamster ovary (CHO) cells that express human sodium channels Nav 1.8 or Nav 1.7 in a stable manner.
(§2) The experimental protocol voltage-clamp using the whole cell configuration was established on the automated ScreenPatch® 384P platform (SP384PE, Nanion Technologies, Livingston, NJ) and the results were recorded with a Nanion 384-well Patch Clamp chip (NPC) (Nanion Technologies, Livingston, NJ).
(§3) Compounds of Formula Ia and Formula Ib were diluted in eight concentrations in the extracellular solution composed of saline solution, buffered with HEPES (mM): NaCl, 137; KCl, 4; CaCl2, 3,8; MgCl2, 1; HEPES, 10; Glucose, 10; pH 7.4. The […], 50; CsF, 90; MgCl2, 5; EGTA, 5; HEPES, 10; pH 7.2. The duration of exposure of each compound with cells expressing Nav 1.7 or Nav 1.8 was at least five minutes, and the assays were performed at room temperature.
(§4) The measurements of the sodium currents of Nav 1.8 and Nav 1.7 were obtained using the voltage protocol described below: A holding voltage of -100 mV was established followed by an inactivation voltage step at -40 mV for 8 seconds, followed by a step of -100 mV for 20 ms, followed by a 20 ms step for 10 mV for Nav 1.8 or 0 mV for Nav 1.7 (TP1A) before returning to the holding voltage of -100 mV.
(§5) The protocol was repeated at a frequency of 0.05 Hz and the amplitude of the current was quantified throughout the recording of the TP1A phase. The variation in the amplitude of the peak current was evaluated according to the formula described below, after exposing the cells expressing the channels to each concentration of the different compounds: % Block = (1−(ITP1A,molecule/ITP1A,basal)×100%, [formula] wherein ITP1A,basal and ITP1A,molecule represent the peaks of sodium current input into TP1A before exposure to the compound and in the presence of the compound, respectively.
(§6) Data were obtained by nonlinear regression (nonlinear least squares) with XLfit for Excel (Microsoft, Redmond, WA).
(§7) The compounds were tested in at least one assay to obtain the value of CI50. For compounds that were tested in two or more assays, the results are described as the mean of the CI50 values.

[2] = biological target: T2, human sodium channels Nav 1.7 (Homo sapiens, UniProt Q15858); test: Automated whole-cell voltage-clamp (ScreenPatch 384P) sodium current block, Nav 1.7; assay type: cell-based; conditions: CHO cells stably expressing human Nav 1.7; holding -100 mV, inactivation step -40 mV for 8 seconds, test step 0 mV (TP1A); exposure at least five minutes, room temperature; mean where tested in two or more assays; read-out: Nav1.7 IC50
T2 construct: expressed in transfected cells
Description: as §1, §2, §3, §4, §5, §6, §7

T1 sequence (Q9Y5Y9 whole entry): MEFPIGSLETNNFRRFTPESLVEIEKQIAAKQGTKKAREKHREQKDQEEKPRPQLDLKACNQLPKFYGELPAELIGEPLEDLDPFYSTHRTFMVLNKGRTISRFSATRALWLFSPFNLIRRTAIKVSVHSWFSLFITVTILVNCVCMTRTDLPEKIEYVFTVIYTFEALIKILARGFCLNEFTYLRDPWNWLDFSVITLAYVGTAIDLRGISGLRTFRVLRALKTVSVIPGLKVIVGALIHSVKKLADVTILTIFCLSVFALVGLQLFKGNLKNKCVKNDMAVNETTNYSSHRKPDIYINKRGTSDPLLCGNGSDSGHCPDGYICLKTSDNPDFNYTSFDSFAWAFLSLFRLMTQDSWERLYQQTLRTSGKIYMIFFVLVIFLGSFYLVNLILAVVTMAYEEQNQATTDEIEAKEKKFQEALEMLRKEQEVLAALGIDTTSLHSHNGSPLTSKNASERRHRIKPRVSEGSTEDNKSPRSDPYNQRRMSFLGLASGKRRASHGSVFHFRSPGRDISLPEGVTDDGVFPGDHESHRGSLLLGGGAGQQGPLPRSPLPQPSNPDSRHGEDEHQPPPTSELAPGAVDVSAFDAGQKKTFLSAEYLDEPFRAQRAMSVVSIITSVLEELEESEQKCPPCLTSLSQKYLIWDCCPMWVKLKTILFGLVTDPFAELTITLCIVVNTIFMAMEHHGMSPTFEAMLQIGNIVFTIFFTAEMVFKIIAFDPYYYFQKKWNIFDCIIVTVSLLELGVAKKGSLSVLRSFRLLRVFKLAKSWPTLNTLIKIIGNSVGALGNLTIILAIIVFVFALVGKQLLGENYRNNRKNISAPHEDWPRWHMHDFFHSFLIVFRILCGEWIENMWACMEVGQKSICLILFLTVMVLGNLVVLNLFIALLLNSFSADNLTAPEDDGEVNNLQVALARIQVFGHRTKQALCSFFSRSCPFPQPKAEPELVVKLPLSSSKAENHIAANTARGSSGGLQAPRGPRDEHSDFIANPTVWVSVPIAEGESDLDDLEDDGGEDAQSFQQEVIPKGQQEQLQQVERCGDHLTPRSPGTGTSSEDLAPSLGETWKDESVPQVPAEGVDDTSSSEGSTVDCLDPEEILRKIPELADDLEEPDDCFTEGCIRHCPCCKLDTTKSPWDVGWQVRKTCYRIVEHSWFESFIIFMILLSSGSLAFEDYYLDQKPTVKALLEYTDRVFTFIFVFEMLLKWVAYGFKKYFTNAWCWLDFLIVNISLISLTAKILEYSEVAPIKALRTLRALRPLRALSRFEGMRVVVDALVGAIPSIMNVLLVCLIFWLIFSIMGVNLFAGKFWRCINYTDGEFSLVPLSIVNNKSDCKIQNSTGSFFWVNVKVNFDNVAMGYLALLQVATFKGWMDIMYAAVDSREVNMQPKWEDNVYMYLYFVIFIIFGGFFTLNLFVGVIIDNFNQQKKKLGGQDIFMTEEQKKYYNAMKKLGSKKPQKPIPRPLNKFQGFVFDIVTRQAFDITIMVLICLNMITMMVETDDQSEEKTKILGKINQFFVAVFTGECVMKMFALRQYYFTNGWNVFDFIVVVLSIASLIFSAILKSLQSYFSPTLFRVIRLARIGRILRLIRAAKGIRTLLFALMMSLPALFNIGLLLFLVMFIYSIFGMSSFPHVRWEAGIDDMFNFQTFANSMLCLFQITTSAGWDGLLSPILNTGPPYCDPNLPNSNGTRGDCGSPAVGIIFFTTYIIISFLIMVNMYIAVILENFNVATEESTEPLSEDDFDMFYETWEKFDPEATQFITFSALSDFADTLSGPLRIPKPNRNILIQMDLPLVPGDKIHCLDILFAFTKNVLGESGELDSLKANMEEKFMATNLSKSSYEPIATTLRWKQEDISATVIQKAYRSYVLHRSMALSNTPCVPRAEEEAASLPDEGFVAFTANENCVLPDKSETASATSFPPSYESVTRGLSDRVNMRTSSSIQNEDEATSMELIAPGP
T2 sequence (Q15858 whole entry): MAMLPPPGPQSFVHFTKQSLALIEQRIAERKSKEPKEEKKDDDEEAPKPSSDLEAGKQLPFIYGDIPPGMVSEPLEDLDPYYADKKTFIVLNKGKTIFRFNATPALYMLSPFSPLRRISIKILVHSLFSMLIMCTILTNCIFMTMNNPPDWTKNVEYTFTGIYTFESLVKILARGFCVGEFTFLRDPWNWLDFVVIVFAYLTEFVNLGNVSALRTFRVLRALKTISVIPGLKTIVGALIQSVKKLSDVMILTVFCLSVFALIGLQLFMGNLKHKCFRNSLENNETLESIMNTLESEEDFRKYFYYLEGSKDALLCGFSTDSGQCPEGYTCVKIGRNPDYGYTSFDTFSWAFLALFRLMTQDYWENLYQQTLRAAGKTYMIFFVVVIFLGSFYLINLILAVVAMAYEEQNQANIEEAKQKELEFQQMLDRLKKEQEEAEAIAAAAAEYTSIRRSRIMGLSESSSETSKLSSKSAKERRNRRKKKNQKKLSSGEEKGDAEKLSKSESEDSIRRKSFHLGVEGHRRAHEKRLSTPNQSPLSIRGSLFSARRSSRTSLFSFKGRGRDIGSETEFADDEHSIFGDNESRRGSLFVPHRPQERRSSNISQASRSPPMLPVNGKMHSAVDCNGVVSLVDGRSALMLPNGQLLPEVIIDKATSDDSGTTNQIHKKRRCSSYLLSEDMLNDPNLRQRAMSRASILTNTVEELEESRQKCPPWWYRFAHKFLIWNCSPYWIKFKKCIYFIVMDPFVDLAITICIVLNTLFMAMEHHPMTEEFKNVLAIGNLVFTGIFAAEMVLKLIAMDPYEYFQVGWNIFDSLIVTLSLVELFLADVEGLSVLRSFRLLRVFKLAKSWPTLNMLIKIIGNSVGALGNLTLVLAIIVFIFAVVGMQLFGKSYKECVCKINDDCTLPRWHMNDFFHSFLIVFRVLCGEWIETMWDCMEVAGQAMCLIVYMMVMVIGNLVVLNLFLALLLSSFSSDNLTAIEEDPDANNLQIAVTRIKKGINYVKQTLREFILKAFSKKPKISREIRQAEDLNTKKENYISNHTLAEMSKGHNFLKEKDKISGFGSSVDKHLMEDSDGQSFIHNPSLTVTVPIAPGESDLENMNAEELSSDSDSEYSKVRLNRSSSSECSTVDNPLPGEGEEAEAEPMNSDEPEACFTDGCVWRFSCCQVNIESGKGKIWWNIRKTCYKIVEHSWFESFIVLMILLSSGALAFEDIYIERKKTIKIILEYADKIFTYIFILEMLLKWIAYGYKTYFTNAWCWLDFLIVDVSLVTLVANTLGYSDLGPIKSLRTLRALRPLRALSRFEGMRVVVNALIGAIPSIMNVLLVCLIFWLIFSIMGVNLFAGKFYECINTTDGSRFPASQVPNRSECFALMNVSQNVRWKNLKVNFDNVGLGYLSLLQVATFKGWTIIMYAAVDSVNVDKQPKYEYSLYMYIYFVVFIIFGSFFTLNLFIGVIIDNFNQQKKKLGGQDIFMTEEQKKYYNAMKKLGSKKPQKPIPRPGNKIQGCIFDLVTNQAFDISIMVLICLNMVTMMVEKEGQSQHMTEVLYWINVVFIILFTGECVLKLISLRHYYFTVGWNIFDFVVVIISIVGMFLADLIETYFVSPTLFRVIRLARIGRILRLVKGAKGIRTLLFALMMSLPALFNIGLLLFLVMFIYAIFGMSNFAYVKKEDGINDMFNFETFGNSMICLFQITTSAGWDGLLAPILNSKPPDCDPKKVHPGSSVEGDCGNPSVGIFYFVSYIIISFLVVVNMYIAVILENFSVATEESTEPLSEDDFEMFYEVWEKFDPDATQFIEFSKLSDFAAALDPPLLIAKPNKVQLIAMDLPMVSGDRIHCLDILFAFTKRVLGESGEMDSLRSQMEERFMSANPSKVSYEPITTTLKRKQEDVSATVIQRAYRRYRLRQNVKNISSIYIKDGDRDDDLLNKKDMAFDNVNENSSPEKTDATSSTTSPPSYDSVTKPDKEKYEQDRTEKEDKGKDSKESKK

| IC50 [1] [nM] | IC50 [2] [nM] | Structure (SMILES) |
| --- | --- | --- |
| > 1000 | > 1000 | CCOc1ccc(-c2cncc(C(=O)Nc3cc4cccc(OC)c4[nH]3)n2)cn1 [compound 72] |
| < 500 | 500 to 1000 | CCOc1ccc(-c2cncc(C(=O)Nc3cc4c(OC)ccc(F)c4[nH]3)n2)cn1 [compound 74] |
| < 500 | > 1000 | COc1cc(OC)cc([C@H](O)CNC(=O)c2cncc(-c3ccc(OC(F)F)cc3)n2)c1 [compound 54] |
| < 500 | 500 to 1000 | COc1cc(CCNC(=O)c2cncc(-c3ccc(OC(F)F)nc3)n2)cc(OC)c1 [compound 29] |
| > 1000 | > 1000 | CCOc1ccc(-c2cncc(C(=O)NCCc3cc(OC)cnc3F)c2)cc1 [compound 102] |
| > 1000 | > 1000 | CCOc1ccc(-c2cncc(C(=O)NCc3cnc4ccc(OC)cn34)n2)cn1 [compound 86] |
| > 1000 | > 1000 | COc1ccc(-c2cncc(C(=O)NCCc3ccccc3F)n2)cn1 [compound 48] |
| > 1000 | > 1000 | COc1cnc(F)c(CCNC(=O)c2cncc(-c3ccc(C(C)(C)O)cc3)n2)c1 [compound 56] |
| > 1000 | > 1000 | COc1cnc(F)c(CCNC(=O)c2cncc(-c3ccc(C(C)O)cc3)n2)c1 (centres unmarked) [compound 59] |
| < 500 | > 1000 | [2H]C([2H])([2H])Oc1ccc(-c2cncc(C(=O)NC[C@@H](O)c3cc(OC)cc(OC)c3)n2)cc1 [compound 93] |
| > 1000 | > 1000 | [2H]C([2H])([2H])Oc1ccc(-c2cncc(C(=O)NCCc3cc(OC)cnc3F)n2)cn1 [compound 90] |
| 500 to 1000 | 500 to 1000 | CCOc1ccc(-c2cncc(C(=O)N[C@@H]3CCc4c(OC)ccc(F)c4C3)n2)cn1 [compound 79] |
| < 500 | > 1000 | CCOc1ccc(-c2cncc(C(=O)NC[C@H](C)c3cc(OC)cc(OC)c3)n2)cc1 [compound 22] |
| > 1000 | > 1000 | CCOc1ccc(-c2cc(C(=O)NCCc3cc(OC)cnc3F)cnn2)cc1 [compound 100] |
| < 500 | > 1000 | COc1ccc(-c2cncc(C(=O)NC[C@@H](O)c3cc(OC)cc(OC)c3)n2)cc1 [compound 55] |
| > 1000 | > 1000 | COc1ccc(-c2cncc(C(=O)NCCc3cc(OC)cc(OC)c3)n2)cc1 [compound 49] |
| > 1000 | > 1000 | CCOc1ccc(-c2cc(C(=O)NCCc3cc(OC)cnc3F)ccn2)cc1 [compound 104] |
| < 500 | 500 to 1000 | COc1cnc(F)c(CCNC(=O)c2cncc(-c3ccc(OC)nc3)n2)c1 [compound 53] |
| < 500 | < 500 | CCOc1ccc(-c2cncc(C(=O)NCCc3cc(OC)cc(OC)c3)n2)c(C)c1 [compound 4] |

| IC50 [1] [nM] | IC50 [2] [nM] | Structure (SMILES) |
| --- | --- | --- |
| > 1000 | > 1000 | CCOc1ccc(-c2cnnc(C(=O)NCCc3cc(OC)cnc3F)c2)cc1 [compound 101] |
| > 1000 | > 1000 | CCOc1ccc(-c2cncc(C(=O)Nc3cn4c(F)ccc(OC)c4n3)n2)cn1 [compound 63] |
| < 500 | 500 to 1000 | CCOc1ccc(-c2cncc(C(=O)NCCc3cc(OC)cnc3F)n2)cn1 [compound 34] |
| > 1000 | > 1000 | CCOc1ccc(-c2cncc(C(=O)N[C@H]3Cc4c(OC)cnc(F)c4C3)n2)cn1 [compound 83] |
| > 1000 | > 1000 | COc1cnc(F)c(CCNC(=O)c2cncc(-c3ccc(C(C)(C)O)nc3)n2)c1 [compound 57] |
| < 500 | > 1000 | [2H]C([2H])([2H])Oc1ccc(-c2cncc(C(=O)NCCc3cc(OC)cnc3F)n2)cc1 [compound 94] |
| < 500 | 500 to 1000 | CCOc1ccc(-c2cncc(C(=O)NCCc3cc(C(C)O)ccc3F)n2)cn1 (centres unmarked) [compound 43] |
| > 1000 | > 1000 | CCOc1ccc(-c2cc(C(=O)NCCc3cc(OC)cnc3F)ccn2)cn1 [compound 109] |
| < 500 | > 1000 | CCOc1ccc(-c2cncc(C(=O)N[C@@H]3Cc4c(F)ccc(OC)c4C3)n2)cn1 [compound 81] |
| < 500 | 500 to 1000 | CCOc1ccc(-c2cncc(C(=O)Nc3cc4c(OC)cccc4[nH]3)n2)cc1 [compound 60] |
| < 500 | > 1000 | COc1ccc(-c2cncc(C(=O)NCCc3cc(OC)cnc3F)n2)cc1 [compound 52] |
| > 1000 | > 1000 | CCOc1ccc(-c2nccc(C(=O)NCCc3cc(OC)cnc3F)n2)cn1 [compound 110] |
| > 1000 | > 1000 | CCOc1ccc(-c2cncc(C(=O)NCc3ncc4ccc(OC)cn34)n2)cn1 [compound 85] |
| > 1000 | > 1000 | CCOc1ccc(-c2cncc(C(=O)Nc3cc4c(F)ccc(OC)c4[nH]3)n2)cc1 [compound 76] |
| 500 to 1000 | > 1000 | CCOc1ccc(-c2cncc(C(=O)N[C@H]3Cc4c(F)ccc(OC)c4C3)n2)cn1 [compound 82] |
| > 1000 | > 1000 | CCOc1ccc(-c2cncc(C(=O)Nc3nc4c(F)ncc(OC)c4o3)n2)cn1 [compound 67] |
| > 1000 | > 1000 | [2H]C([2H])([2H])Oc1cc(OC([2H])([2H])[2H])cc([C@H](O)CNC(=O)c2cncc(-c3ccc(OC([2H])([2H])[2H])nc3)n2)c1 [compound 92] |
| > 1000 | > 1000 | CCOc1ccc(-c2cncc(C(=O)N(C)c3cc4c(F)ccc(OC)c4[nH]3)n2)cn1 [compound 71] |
